Experimental data taken from patent US7473789B2, “9-(1′,5′-dimethyl-1′-vinyl -4′- hexenyl)-4-hydroxy-7H-furo[3,2-γ] [1] benzopyran-7-one as antibacterial agent” (Takasago International Corporation, priority 2004, dated 2009).
Converted amounts (≈) assume the structure as drawn. Like-named read-outs stand apart in the source and are kept apart here. One block for each compound: values may come before it.

Columns and labels:
Type in all cases: cell-based
[1] = system: Staphyrococcus epidermidis ATCC 12228; assay: MIC by Agar Dilution Test, Se-3; conditions: read-out: Minimum inhibitory concentration (MIC)
Experimental: (§1) Minimum inhibitory concentration (MIC) was determined by Agar Dilution Test (ADT).
(§2) Samples were dissolved in ethanol or water (according to solubility of each sample) to carry out two-fold serial dilution. A hundred μl of the resultant was added to a 10 ml sterilized agar medium (skin-related bacteria and standard bacteria in Mueller-Hinton Medium (Difco), yeast and filamentous bacteria in Sabroud Medium (Difco) and anaerobic bacteria in Trypticase Soy agar(BBL)), well agitated, transferred to a 9 cmf petri dish and immobilized at room temperature. To this petri dish, a 27-spot microplanter MIT-P from Sakuma Seisakusho, LTD. was used to spot 1×10^5 cfu (colony forming unit) of skin-related bacteria and standard bacteria, and the resultants were cultured at 37° C. for 18 hours. Yeast and filamentous bacteria were spotted for 5000 cfu (except Cg-1 was 50˜100 cfu) and cultured at 27° C. for 72 hours. Anaerobic bacteria were cultured at 37° C. for 72 hours under anaerobic conditions (using BBL gas pack anaerobic system). After completion of cultivation, growth of each bacterium was compared with that in a petri dish with alcohol alone (blank). A concentration of a sample without a bacterium growth was determined as the minimum inhibitory concentration (MIC).
(§3) As comparative substances, butylparaben (BPHB) and triclosan were determined as well.

[2] = system: Prevotella intermedia JCM 6322; assay: MIC by Agar Dilution Test, Pt-1; conditions: read-out: Minimum inhibitory concentration (MIC)
Experimental: as §1, §2, §3

[3] = system: Malassezia furfur IFO 0656; assay: MIC by Agar Dilution Test, Mf-1; conditions: read-out: Minimum inhibitory concentration (MIC)
Experimental: as §1, §2, §3

[4] = system: Bacteroides fragilis GM 7000 JCM 5560; assay: MIC by Agar Dilution Test, Bf-1; conditions: read-out: Minimum inhibitory concentration (MIC)
Experimental: as §1, §2, §3

[5] = system: Staphyrococcus aureus ATCC 6538; assay: MIC by Agar Dilution Test, Sa-4; conditions: read-out: Minimum inhibitory concentration (MIC)
Experimental: as §1, §2, §3

[6] = system: Fusobacterium nucleatum JCM 6328; assay: MIC by Agar Dilution Test, Fn-1; conditions: read-out: Minimum inhibitory concentration (MIC)
Experimental: as §1, §2, §3

[7] = system: Corynebacterium minutissimum IFO 15361; assay: MIC by Agar Dilution Test, Cm-1; conditions: read-out: Minimum inhibitory concentration (MIC)
Experimental: as §1, §2, §3

[8] = system: Corynebacterium xerosis JCM 1324; assay: MIC by Agar Dilution Test, Cx-2; conditions: read-out: Minimum inhibitory concentration (MIC)
Experimental: as §1, §2, §3

[9] = system: Actinomyces naeslundii JCM 8350; assay: MIC by Agar Dilution Test, Aa-1; conditions: read-out: Minimum inhibitory concentration (MIC)
Experimental: as §1, §2, §3

[10] = system: Staphyrococcus epidermidis var. h-6 Takasago isolate; assay: MIC by Agar Dilution Test, Se-2; conditions: read-out: Minimum inhibitory concentration (MIC)
Experimental: as §1, §2, §3

[11] = system: Propionibacterium acnes JCM 6473; assay: MIC by Agar Dilution Test, Pa-2; conditions: Cutibacterium acnes, read-out: Minimum inhibitory concentration (MIC)
Experimental: as §1, §2, §3

[12] = system: Staphyrococcus aureus 209P IAM 12082; assay: MIC by Agar Dilution Test, Sa-3; conditions: read-out: Minimum inhibitory concentration (MIC)
Experimental: as §1, §2, §3

[13] = system: Bacillus subtilis PCI 219 IFO 3134; assay: MIC by Agar Dilution Test, Bs-1; conditions: read-out: Minimum inhibitory concentration (MIC)
Experimental: as §1, §2, §3

[14] = system: Porphyromonas gingivalis JCM 8525; assay: MIC by Agar Dilution Test, Pg-1; conditions: read-out: Minimum inhibitory concentration (MIC)
Experimental: as §1, §2, §3

[15] = system: Staphyrococcus epidermidis JCM 2414; assay: MIC by Agar Dilution Test, Se-1; conditions: read-out: Minimum inhibitory concentration (MIC)
Experimental: as §1, §2, §3

[16] = system: Streptococcus mutans JCM 5175; assay: MIC by Agar Dilution Test, Su-1; conditions: read-out: Minimum inhibitory concentration (MIC)
Experimental: as §1, §2, §3

[17] = system: Propionibacterium acnes ATCC 6919; assay: MIC by Agar Dilution Test, Pa-3; conditions: Cutibacterium acnes, read-out: Minimum inhibitory concentration (MIC)
Experimental: as §1, §2, §3

[18] = system: Actinomyces viscosus JCM 8352; assay: MIC by Agar Dilution Test, Av-1; conditions: read-out: Minimum inhibitory concentration (MIC)
Experimental: as §1, §2, §3

MIC ([1]; Se-3, Mueller-Hinton Medium, 1×10^5 cfu, 37° C. for 18 hours): 3.1 µg/mL (≈ 9.16 µM)
MIC ([2]; JCM6322, Pt-1, Trypticase Soy agar, 37° C. for 72 hours, anaerobic conditions): 1.6 µg/mL (≈ 4.73 µM)
MIC ([3]; Mf-1 (yeast), Sabroud Medium, 5000 cfu, 27° C. for 72 hours): 3.1 µg/mL (≈ 9.16 µM)
MIC ([4]; JCM5560, Bf-1, Trypticase Soy agar, 37° C. for 72 hours, anaerobic conditions): 1.6 µg/mL (≈ 4.73 µM)
MIC ([5]; Sa-4, Mueller-Hinton Medium, 1×10^5 cfu, 37° C. for 18 hours): 3.1 µg/mL (≈ 9.16 µM)
MIC ([6]; JCM6328, Fn-1, Trypticase Soy agar, 37° C. for 72 hours, anaerobic conditions): 1.6 µg/mL (≈ 4.73 µM)
MIC ([7]; IFO15361, Cm-1, Mueller-Hinton Medium, 1×10^5 cfu, 37° C. for 18 hours): 3.1 µg/mL (≈ 9.16 µM)
MIC ([8]; JCM1324, Cx-2, Mueller-Hinton Medium, 1×10^5 cfu, 37° C. for 18 hours): 3.1 µg/mL (≈ 9.16 µM)
MIC ([9]; JCM8350, Aa-1, Trypticase Soy agar, 37° C. for 72 hours, anaerobic conditions): 3.1 µg/mL (≈ 9.16 µM)
MIC ([10]; Se-2, Mueller-Hinton Medium, 1×10^5 cfu, 37° C. for 18 hours): 3.1 µg/mL (≈ 9.16 µM)
MIC ([11]; JCM6473, Pa-2, Trypticase Soy agar, 37° C. for 72 hours, anaerobic conditions): 3.1 µg/mL (≈ 9.16 µM)
MIC ([12]; Sa-3, Mueller-Hinton Medium, 1×10^5 cfu, 37° C. for 18 hours): 3.1 µg/mL (≈ 9.16 µM)
MIC ([13]; IFO3134, Bs-1, Mueller-Hinton Medium, 1×10^5 cfu, 37° C. for 18 hours): 3.1 µg/mL (≈ 9.16 µM)
MIC ([14]; JCM8525, Pg-1, Trypticase Soy agar, 37° C. for 72 hours, anaerobic conditions): 1.6 µg/mL (≈ 4.73 µM)
MIC ([15]; Se-1, Mueller-Hinton Medium, 1×10^5 cfu, 37° C. for 18 hours): 3.1 µg/mL (≈ 9.16 µM)
MIC ([16]; JCM5175, Su-1, Trypticase Soy agar, 37° C. for 72 hours, anaerobic conditions): 6.3 µg/mL (≈ 18.6 µM)
MIC ([17]; ATCC6919, Pa-3, Trypticase Soy agar, 37° C. for 72 hours, anaerobic conditions): 3.1 µg/mL (≈ 9.16 µM)
MIC ([18]; JCM8352, Av-1, Trypticase Soy agar, 37° C. for 72 hours, anaerobic conditions): 3.1 µg/mL (≈ 9.16 µM)
SMILES: C=CC(C)(CCC=C(C)C)c1c2occc2c(O)c2ccc(=O)oc12 (stereo not drawn) [9-(1′,5′-dimethyl-1′-vinyl-4′-hexenyl)-4-hydroxy-7H-furo[3,2-γ][1]benzopyran-7-one]

SMILES: CCCCOC(=O)c1ccc(O)cc1 [Butylparaben, butylparaben]
MIC ([1]; 18 h): 200 µg/mL (≈ 1030 µM)
MIC ([2]; JCM6322, 72 h): 100 µg/mL (≈ 515 µM)
MIC ([3]; 72 h): 100 µg/mL (≈ 515 µM)
MIC ([4]; JCM5560, 72 h): 50 µg/mL (≈ 257 µM)
MIC ([5]; 18 h): 200 µg/mL (≈ 1030 µM)
MIC ([6]; JCM6328, 72 h): 100 µg/mL (≈ 515 µM)
MIC ([7]; IFO15361, 18 h): 200 µg/mL (≈ 1030 µM)
MIC ([8]; JCM1324, 18 h): 50 µg/mL (≈ 257 µM)
MIC ([9]; JCM8350, 72 h): 100 µg/mL (≈ 515 µM)
MIC ([10]; 18 h): 200 µg/mL (≈ 1030 µM)
MIC ([11]; JCM6473, 72 h): 100 µg/mL (≈ 515 µM)
MIC ([12]; 18 h): 100 µg/mL (≈ 515 µM)
MIC ([13]; IFO3134, 18 h): 200 µg/mL (≈ 1030 µM)
MIC ([14]; JCM8525, 72 h): 50 µg/mL (≈ 257 µM)
MIC ([15]; 18 h): 200 µg/mL (≈ 1030 µM)
MIC ([16]; JCM5175, 72 h): 200 µg/mL (≈ 1030 µM)
MIC ([17]; ATCC6919, 72 h): 100 µg/mL (≈ 515 µM)
MIC ([18]; JCM8352, 72 h): 100 µg/mL (≈ 515 µM)

SMILES: Oc1cc(Cl)ccc1Oc1ccc(Cl)cc1Cl [Triclosan]
MIC ([1]; 18 h): 1.6 µg/mL (≈ 5.53 µM)
MIC ([3]; 72 h): 1.6 µg/mL (≈ 5.53 µM)
MIC ([5]; 18 h): 1.6 µg/mL (≈ 5.53 µM)
MIC ([7]; IFO15361, 18 h): 1.6 µg/mL (≈ 5.53 µM)
MIC ([8]; JCM1324, 18 h): 3.1 µg/mL (≈ 10.7 µM)
MIC ([10]; 18 h): 1.6 µg/mL (≈ 5.53 µM)
MIC ([12]; 18 h): 1.6 µg/mL (≈ 5.53 µM)
MIC ([13]; IFO3134, 18 h): 0.78 µg/mL (≈ 2.69 µM)
MIC ([15]; 18 h): 1.6 µg/mL (≈ 5.53 µM)
